According to patent US9084826B2, “Fatty acid conjugates of statin and FXR agonists; compositions and method of uses” (Catabasis Pharmaceuticals, Inc., priority 2012, dated 2015):

System: PCSK9 secreted from HepG2 cells
Experiment: PCSK9 secretion assay in HepG2 cells (PCSK9 ELISA)
Type: cell-based
Conditions: 16 hours incubation
Protocol: HepG2 cells (from ATCC, Catalog no. HB-8065) were maintained in DMEM (Invitrogen) supplemented with 10% fetal bovine serum (Invitrogen). The day prior to the PCSK9 assay, cells were seeded in 96-well collagen coated plates at 25,000 cells/well.
The compounds of the invention were stored at −20° C. until used. The test article compound was dissolved in 100% ethanol to a 50 mM stock solution. This was then diluted in FBS to a final concentration of 1 mM. This solution was placed in a sonicating water bath for 30 minutes. Subsequent dilutions were then made in FBS supplemented with an equivalent volume of ethanol and mixed by vortexing.
HepG2 cells were seeded onto a collagen coated 96-well plate (Becton Dickinson, Catalog no. 35-4407) the day prior to the assay, as described above. The next day, the cell medium was removed, washed once with […] serum free DMEM to remove any residual PCSK9, and replaced with […] of serum free DMEM. Ten microliters of each compound concentration prepared in FBS was then added. Each concentration of compound was tested in triplicate. The compound was incubated with the cells overnight for 16 hours. Following this incubation, 10 µL of AlamarBlue was added to each well and cells incubated for another 2 hours. The plates were then removed and AlamarBlue fluorescence was measured (excitation, 550 nm and […]) to assess cell viability. Cell culture supernatant was then diluted […] 1× RD5P Calibrator Diluent and PCSK9 ELISA was then performed with […] of this diluted sample, as per the manufacturer's instructions. The ELISA was measured on a Victor X5 multilabel plate reader (PerkinElmer) at an absorbance of 450 nm with background correction measured at 550 nm (The PCSK9 Elisa kits can be purchased from R&D System, Catalog no. DPC900).

[1] = two tested concentrations (6.25 and 25 μM)

Row | SMILES | level of PCSK9 secreted from HepG2 cells [1] | other results
1 | CC/C=C\C/C=C\C/C=C\C/C=C\C/C=C\CCCC(=O)NCCNC(=O)C[C@H](O)C[C@H](O)/C=C/c1c(-c2ccc(F)cc2)nc(N(C)S(C)(=O)=O)nc1C(C)C [Compound 1-43, (5Z,8Z,11Z,14Z,17Z)—N-(2-((3R,5S,E)-7-(4-(4-fluorophenyl)-6-isopropyl-2-(N-methylmethylsulfonamido)pyrimidin-5-yl)-3,5-dihydroxyhept-6-enamido)ethyl)icosa-5,8,11,14,17-pentaenamide] | did not cause an increase | 
2 | CC/C=C\C/C=C\C/C=C\C/C=C\C/C=C\C/C=C\CCC(=O)NCCNC(=O)C[C@H](O)C[C@@H](O)CC[C@@H]1C2C(=C[C@H](C)CC2OC(=O)C(C)(C)CC)C=C[C@@H]1C (stereo partly drawn) [Compound I-1, (3R,7S,8S)-8-((3S,5R)-7-((2-((4Z,7Z,10Z,13Z,16Z,19Z)-docosa-4,7,10,13,16,19-hexaenamido)ethyl)amino)-3,5-dihydroxy-7-oxoheptyl)-3,7-dimethyl-1,2,3,7,8,8a-hexahydronaphthalen-1-yl 2,2-dimethylbutanoate] |  | level of PCSK9 secreted from HepG2 cells (6.25 μM, FIG. 1): no significant change; level of PCSK9 secreted from HepG2 cells (25 μM, FIG. 1): decrease
3 | CC/C=C\C/C=C\C/C=C\C/C=C\C/C=C\C/C=C\CCC(=O)NCCNC(=O)C[C@H](O)C[C@H](O)CCn1c(-c2ccc(F)cc2)c(-c2ccccc2)c(C(=O)Nc2ccccc2)c1C(C)C [Compound I-22, 1-((3R,5R)-7-(2-(4Z,7Z,10Z,13Z,16Z,19Z)-docosa-4,7,10,13,16,19-hexaenamidoethylamino)-3,5-dihydroxy-7-oxoheptyl)-5-(4-fluorophenyl)-2-isopropyl-N,4-diphenyl-1H-pyrrole-3-carboxamide] | no significant change | 
4 | CC(C)c1c(C(=O)Nc2ccccc2)c(-c2ccccc2)c(-c2ccc(F)cc2)n1CC[C@@H](O)C[C@@H](O)CC(=O)O [atorvastatin, reference compound] |  | level of PCSK9 secretion from HepG2 cells (1.25, 2.5, 5.0 and 10.0 μM, compared to the control, FIG. 1): significant increase
5 | CC(C)c1nc(N(C)S(C)(=O)=O)nc(-c2ccc(F)cc2)c1/C=C/[C@@H](O)C[C@@H](O)CC(=O)O [rosuvastatin, reference compound] | increase | 
